Results taken from patent US9532982B2, “Pharmaceutical combination comprising a phosphatidylinositol 3-kinase inhibitor and/an aromatase inhibitor” (Novartis AG, priority 2012, dated 2017).

Columns and labels:
[1] = system: MCF7/Aro human breast carcinoma cells; assay: Δ4A induced MCF7/Aro cell proliferation (CellTiter-Glo), Compound A and letrozole, Example 2; assay type: cell-based; conditions: 10 nM Δ4A, 5 days, vs DMSO control
Protocol: (§1) Synergy is calculated by comparing a combination's response to those of its single agents, against the drug-with-itself dose-additive reference model.

[2] = system: MCF7/Aro human breast carcinoma cells; assay: Δ4A induced MCF7/Aro cell proliferation (CellTiter-Glo), Compound A and exemestane, Example 1; assay type: cell-based; conditions: 10 nM Δ4A, 5 days, vs DMSO control
Protocol: as §1

## N#Cc1ccc(C(c2ccc(C#N)cc2)n2cncn2)cc1 [letrozole]
[1]
  maximum level inhibition of Δ4A-driven cell proliferation, single agent: 53%

## C=C1C[C@@H]2[C@H](CC[C@]3(C)C(=O)CC[C@@H]23)[C@@]2(C)C=CC(=O)C=C12 [exemestane]
[2]
  maximum level inhibition of Δ4A-driven cell proliferation, single agent: 33%

## Cc1nc(NC(=O)N2CCC[C@H]2C(N)=O)sc1-c1ccnc(C(C)(C)C(F)(F)F)c1 [Compound A, (S)-Pyrrolidine-1,2-dicarboxylic acid 2-amide 1-({4-methyl-5-[2-(2,2,2-trifluoro-1,1-dimethyl-ethyl)-pyridin-4-yl]-thiazol-2-yl}-amide)]
[2]
  maximum level inhibition of Δ4A-driven cell proliferation, single agent: 61%
[1]
  maximum level inhibition of Δ4A-driven cell proliferation, single agent: 61%
